In one data set the target is T1, CYP1A2 (Homo sapiens, UniProt P05177).
T1 construct: from tissue; host or cells: human liver microsomes
T1 sequence (P05177 1-516): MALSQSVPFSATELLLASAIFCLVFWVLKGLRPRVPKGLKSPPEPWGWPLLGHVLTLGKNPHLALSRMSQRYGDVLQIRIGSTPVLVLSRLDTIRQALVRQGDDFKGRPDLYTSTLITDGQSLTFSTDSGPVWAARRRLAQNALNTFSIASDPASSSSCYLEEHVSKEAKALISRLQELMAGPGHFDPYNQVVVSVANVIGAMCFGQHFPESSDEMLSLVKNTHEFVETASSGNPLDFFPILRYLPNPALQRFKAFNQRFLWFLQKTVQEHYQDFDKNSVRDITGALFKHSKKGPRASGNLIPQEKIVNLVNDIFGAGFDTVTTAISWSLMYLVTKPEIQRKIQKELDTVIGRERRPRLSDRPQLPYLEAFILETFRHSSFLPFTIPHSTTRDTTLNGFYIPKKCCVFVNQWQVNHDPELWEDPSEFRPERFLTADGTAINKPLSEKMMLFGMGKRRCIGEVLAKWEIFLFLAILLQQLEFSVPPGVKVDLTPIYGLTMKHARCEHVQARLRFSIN
Format: in vitro ADME. The following applies: 7-ethoxyresorufin-O-deethylase, 5 mM.

The target of the next data set is T2, CYP2C8 (Homo sapiens, UniProt P10632).
T2 construct: from tissue; host or cells: human liver microsomes
T2 sequence (P10632 1-490): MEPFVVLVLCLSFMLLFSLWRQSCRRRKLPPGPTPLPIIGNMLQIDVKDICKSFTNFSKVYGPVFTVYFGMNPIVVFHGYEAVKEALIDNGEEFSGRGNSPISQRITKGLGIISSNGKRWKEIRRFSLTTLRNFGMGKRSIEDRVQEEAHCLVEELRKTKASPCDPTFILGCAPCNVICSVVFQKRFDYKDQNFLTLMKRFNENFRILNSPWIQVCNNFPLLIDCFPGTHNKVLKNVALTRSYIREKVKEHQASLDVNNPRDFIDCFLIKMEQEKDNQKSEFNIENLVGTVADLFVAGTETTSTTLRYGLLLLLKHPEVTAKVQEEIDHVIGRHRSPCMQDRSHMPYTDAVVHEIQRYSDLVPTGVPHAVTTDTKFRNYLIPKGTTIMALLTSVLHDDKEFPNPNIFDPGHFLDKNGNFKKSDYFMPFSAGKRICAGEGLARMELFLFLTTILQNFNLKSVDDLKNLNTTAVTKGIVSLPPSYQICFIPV
The data set can be described thus: In vitro CYP inhibition study, human liver microsomes, CYP2C8. Format: in vitro ADME. The settings on record: Taxol 6α-hydroxylase, 5 mM. On the technique in general: Liver microsomes are a subcellular fraction often used to study metabolism.

A further data set concerns the target T3, CYP2C19 (Homo sapiens, UniProt P33261).
T3 construct: from tissue; host or cells: human liver microsomes
Type of data set: in vitro ADME. The following applies: S-Mephenytoin 4′-hydroxylase, 5 mM.

For another data set, the system named is CYP3A4/5. Type of data set: in vitro ADME, human. The settings on record: 5 mM.
The format of data set [1] is in vivo, human.
Description: Blood samples were collected on Days 1 and 5 at the following time points: predose, 0.5, 1, 2, 3, 4, 6, 8, 10, 12, 16, and 24 hours postdose. In addition, five plasma PK samples for GPB analysis were collected on Day 4 at the following time points: at 1 minute, 30 minutes, and 1 hour following the first morning dose of RAVICTI; at 30 minutes and 1 hour post second dose of RAVICTI.
The nature of data set [2]: Safety and tolerability of RAVICTI coadministered with midazolam. Type of data set: in vivo, human. How it is done:
Safety: Safety and tolerability were assessed through adverse events (AEs), clinical laboratory results, physical examination findings, vital sign measurements, and electrocardiograms (ECGs).
Safety: Safety data were summarized by treatment and time point. Descriptive statistics (mean, standard deviation [SD], minimum, median, maximum, and sample size [N]) were calculated for quantitative safety data and frequency counts were compiled for classification of qualitative safety data. AE verbatim terms were mapped to preferred terms and system organ classes using the Medical Dictionary for Regulatory Activities (MedDRA®) (Version 16.1). Concomitant medications were coded with the World Health Organization (WHO) Dictionary version 1Mar. 2013.

In another data set the target is Cytochrome P450 2C9 (Homo sapiens, UniProt P11712). The data set can be described thus: clinical. The following applies: multiple doses of RAVICTI. How it is done: Methodology: This was an open-label, 2-period, monosequence crossover, drug-drug interaction (DDI) study of RAVICTI and celecoxib in healthy male and female subjects.
Test Product, Dose, Duration, and Mode of Administration: In Treatment A (Period 1), subjects received 200 mg celecoxib (1×200 mg capsule) administered orally with approximately 240 mL of water following an overnight fast and approximately 5 minutes prior to the start of a standard breakfast on Day 1.
Pharmacokinetics: Blood samples (4 mL) for the analysis of plasma celecoxib were collected on Days 1 (Period 1) and 4 (Period 2) at the following time points: predose (Hour 0) and 1, 2, 3, 4, 6, 8, 12, 16, 24, 36, 48, 60, and 72 hours postdose. A blood sample (6 mL) for CYP2C9 genotyping was collected at screening to exclude any subjects with a slow metabolizer genotype (i.e., CYP2C9*2/*2, CYP2C9*2/*3, CYP2C9*1/*3, and CYP2C9*3/*3). PK parameters for celecoxib in plasma were computed following Day 1 (Period 1) and Day 4 (Period 2) blood draws and included AUC0-t, AUC0-inf, AUC%extr, Cmax, tmax, t1/2, kel, and CL/F.
Pharmacokinetics: The possible DDI was examined between co-administration of RAVICTI and celecoxib (Treatment B, test) and celecoxib administered alone (Treatment A, reference). An analysis of variance (ANOVA) was performed with treatment as a fixed effect and subject as a random effect. Data for AUC0-t, AUC0-inf, and Cmax, as appropriate, were ln-transformed prior to analysis. The 90% confidence intervals (CIs) of the test group means relative to the reference group means were obtained by taking the antilog of the corresponding 90% CIs for the differences between the means on the log scale, i.e., ratio of geometric least-squares (LS) means.

Another data set has as its target CYP2D6 (Homo sapiens, UniProt P10635). The settings on record: Bufuralol 1′-hydroxylase, 5 mM.
[3] abbreviates: RAVICTI coadministered with midazolam, 24 healthy subjects.

The text below walks through data of patent publication US20190076384A1, “METHODS FOR TREATING UREA CYCLE DISORDERS” (priority 2017, published 2019).

Where two headings read alike, the source gives them in different places.

The % Inhibition is the drop in the measured response relative to a control, in per cent. A lower % Inhibition goes with little suppression.

T3 sequence (P33261 whole entry): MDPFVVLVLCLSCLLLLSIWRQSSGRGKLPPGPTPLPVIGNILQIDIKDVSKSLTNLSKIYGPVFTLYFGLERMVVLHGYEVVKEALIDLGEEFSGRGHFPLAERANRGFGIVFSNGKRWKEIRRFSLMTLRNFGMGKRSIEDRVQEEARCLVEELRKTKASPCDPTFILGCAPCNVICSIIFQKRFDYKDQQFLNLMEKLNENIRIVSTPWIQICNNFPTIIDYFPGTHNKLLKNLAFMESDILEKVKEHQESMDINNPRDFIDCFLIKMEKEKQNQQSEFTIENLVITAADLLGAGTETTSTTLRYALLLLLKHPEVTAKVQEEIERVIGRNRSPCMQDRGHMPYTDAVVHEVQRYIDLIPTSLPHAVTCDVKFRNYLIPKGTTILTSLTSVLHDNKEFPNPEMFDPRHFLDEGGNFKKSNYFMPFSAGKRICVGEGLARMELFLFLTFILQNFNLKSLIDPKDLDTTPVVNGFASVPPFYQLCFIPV
CYP2D6, sequence (P10635 whole entry): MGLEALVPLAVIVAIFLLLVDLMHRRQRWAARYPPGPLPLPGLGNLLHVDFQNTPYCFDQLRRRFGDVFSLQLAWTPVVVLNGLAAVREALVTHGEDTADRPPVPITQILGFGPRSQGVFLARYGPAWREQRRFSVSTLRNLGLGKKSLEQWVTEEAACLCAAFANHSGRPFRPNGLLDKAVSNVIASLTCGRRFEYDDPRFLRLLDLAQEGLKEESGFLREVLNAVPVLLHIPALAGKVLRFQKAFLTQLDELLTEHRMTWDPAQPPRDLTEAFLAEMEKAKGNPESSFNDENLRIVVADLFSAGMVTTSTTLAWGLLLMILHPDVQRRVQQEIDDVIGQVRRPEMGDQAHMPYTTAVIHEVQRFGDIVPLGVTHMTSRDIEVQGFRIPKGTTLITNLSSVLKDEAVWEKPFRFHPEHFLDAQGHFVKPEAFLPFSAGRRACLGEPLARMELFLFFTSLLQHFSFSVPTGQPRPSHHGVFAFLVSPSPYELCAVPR
Cytochrome P450 2C9, sequence (P11712 whole entry): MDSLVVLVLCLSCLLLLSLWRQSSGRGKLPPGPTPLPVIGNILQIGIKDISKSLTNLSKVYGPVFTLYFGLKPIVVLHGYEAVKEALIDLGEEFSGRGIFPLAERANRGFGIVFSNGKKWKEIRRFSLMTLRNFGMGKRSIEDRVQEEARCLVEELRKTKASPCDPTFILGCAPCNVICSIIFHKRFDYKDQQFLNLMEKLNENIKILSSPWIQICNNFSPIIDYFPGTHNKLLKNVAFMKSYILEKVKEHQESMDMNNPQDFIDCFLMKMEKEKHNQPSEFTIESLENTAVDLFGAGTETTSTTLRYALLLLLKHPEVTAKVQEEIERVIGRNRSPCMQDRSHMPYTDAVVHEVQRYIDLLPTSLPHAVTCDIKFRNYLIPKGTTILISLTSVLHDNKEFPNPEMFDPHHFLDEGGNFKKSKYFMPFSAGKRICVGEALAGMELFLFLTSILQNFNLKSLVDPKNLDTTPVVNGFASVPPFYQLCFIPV

Take `O=C(CCCc1ccccc1)OCC(COC(=O)CCCc1ccccc1)OC(=O)CCCc1ccccc1` [RAVICTI, benzenebutanoic acid, 1′,1″-(1,2,3-propanetriyl) ester]: the “% Inhibition” value at CYP1A2 (pre-incubation time 0 min) turned out to be 5%; on CYP1A2 (pre-incubation time 30 min) it was 8%; at CYP2C8 (pre-incubation time 0 min) it was 11%; on CYP2C8 (pre-incubation time 30 min), 10%; on CYP2C19 (pre-incubation time 0 min) it was 8%; on CYP2C19 (pre-incubation time 30 min), 7%. The “% Inhibition” value in the data set with CYP3A4/5 (Midazolam 1′-hydroxylase, pre-incubation time 0 min) was found to be 19%; in the data set on CYP3A4/5 (Midazolam 1′-hydroxylase, pre-incubation time 30 min), 24%; in the data set on CYP3A4/5 (Testosterone 6β-hydroxylase, pre-incubation time 0 min), 15%; in the data set with CYP3A4/5 (Testosterone 6β-hydroxylase, pre-incubation time 30 min), 6%; at CYP2D6 (pre-incubation time 0 min), 1%; at CYP2D6 (pre-incubation time 30 min), 4%. Further, in data set [1] (Day 4 samples, not quantifiable, LLOQ=1.00 ng/mL), the “Plasma glycerol phenylbutyrate concentrations” value is listed as less than 1.00 ng/mL. Further, the “Intact glycerol phenylbutyrate in plasma” value in data set [1] (healthy subjects, RAVICTI oral) is “not detectable”. For the same compound, the “deaths, SAEs, discontinuations due to AEs” value in data set [2] (setting [3]) is recorded as “no deaths, serious adverse events (SAEs), or subject discontinuations due to AEs”. The “subjects experiencing TEAEs” value in data set [2] (setting [3]) was 6 subjects. Moreover, in data set [2] (setting [3]), the “total TEAEs” value was determined as 10. The “safety and tolerability (conclusion)” value in data set [2] (oral RAVICTI coadministered with midazolam, healthy adults) is “safe and generally well tolerated”. The “inhibition of CYP2C9 activity in vivo” value at Cytochrome P450 2C9 is on record as “did not appear to inhibit”.
